Reference: publication PMC4921870, “The insect repellent N,N-diethyl-m-toluamide (DEET) induces angiogenesis via allosteric modulation of the M3 muscarinic receptor in endothelial cells” (Scientific Reports, 2016)

Biological target: T1, M3 muscarinic receptor (Homo sapiens, UniProt P20309)
T1 construct: gene CHRM3; recombinant M3 receptor expressed in HEK-293 cells (HEK-293/M3)
Assay: leftward shift of carbachol Ca2+ response in HEK-293/M3 cells (fluo-4); [3H]-4-DAMP not displaced
Type: cell-based

T1 sequence (P20309 whole entry): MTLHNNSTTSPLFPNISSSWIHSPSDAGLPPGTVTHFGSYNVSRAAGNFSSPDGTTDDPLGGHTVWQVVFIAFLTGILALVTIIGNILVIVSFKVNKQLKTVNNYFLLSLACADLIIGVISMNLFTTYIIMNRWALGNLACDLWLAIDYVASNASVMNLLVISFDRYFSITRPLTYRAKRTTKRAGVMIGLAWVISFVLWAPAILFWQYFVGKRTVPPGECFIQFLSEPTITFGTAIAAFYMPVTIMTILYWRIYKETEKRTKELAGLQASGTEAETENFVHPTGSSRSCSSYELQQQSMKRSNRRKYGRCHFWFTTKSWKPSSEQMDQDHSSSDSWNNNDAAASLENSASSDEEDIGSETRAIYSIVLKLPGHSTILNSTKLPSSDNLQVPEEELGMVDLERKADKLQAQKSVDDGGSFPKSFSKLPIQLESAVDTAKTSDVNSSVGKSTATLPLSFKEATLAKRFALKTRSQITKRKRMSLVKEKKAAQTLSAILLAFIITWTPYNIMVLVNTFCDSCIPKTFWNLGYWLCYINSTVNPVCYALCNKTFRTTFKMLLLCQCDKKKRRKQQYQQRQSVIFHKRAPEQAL

CCN(CC)C(=O)c1cccc(C)c1 [DEET, N,N-diethyl-meta-toluamide]
leftward shift of carbachol Ca2+ response in HEK-293/M3 cells (fluo-4); [3H]-4-D: Whatever the concentration of DEET used, it was able to induce a leftward shift of the calcium response induced by carbachol
